Paper PMC5321434, “Dihydrobenz[e][1,4]oxazepin-2(3H)-ones, a new anthelmintic chemotype immobilising whipworm and reducing infectivity in vivo” (PLoS Neglected Tropical Diseases, 2017)

System: adult T. muris
Test: Ex vivo adult T. muris automated motility assay (primary/secondary screen at 100 μM and dose-response)
Set-up: species or system Trichuris muris
Details: for PRIMARY_SCREEN_MINUS_LOG_FOLD_CHANGE_MOVEMENT: primary screen; for PRIMARY_SCREEN_MINUS_LOG_FOLD_CHANGE_MOVEMENT / SECONDARY_SCREEN_MINUS_LOG_FOLD_CHANGE_MOVEMENT: adult T. muris motility; for SECONDARY_SCREEN_MINUS_LOG_FOLD_CHANGE_MOVEMENT: secondary screen
Protocol: Severe combined immune deficiency (SCID) mice were bred in the Biological Services Facility at the University of Manchester. Both male and female SCID mice were infected with a high dose of 200 infective embryonated T. muris eggs via oral gavage. At day 35 post-infection, groups of 5 mice were killed and their […] colons removed. Guts were opened longitudinally, washed with pre-warmed Roswell Park Memorial Institute (RPMI) 1640 media supplemented with penicillin (500U/ml) and streptomycin (500μg/ml) and adult T. muris worms gently removed using fine forceps. Worms removed from SCID mice were maintained in RPMI-1640 media supplemented with penicillin (500U/ml) and streptomycin (500μg/ml) at approximately 37°C and studied on the same day. Using fine forceps, individual live worms were placed into 96 well plates containing 75μl of RPMI-1640 medium supplemented with penicillin (500U/ml) and streptomycin (500μg/ml) plus 1% final concentration of DMSO or compound dissolved in DMSO. In the primary screen the test compound concentration was 100μM. Plates were then incubated at 37°C, 5% CO2, and motility was analysed after 24 hours. Worm movement was quantified using an automated motility assay. This system gives an estimate of worm movement in each well by thresholding and quantifying pixel intensity variance over time. An earlier version of this system has been previously described. One adult T. muris worm was used per well, with one well per compound in each replicate of the primary screen. The primary screen was repeated each week for a period of four weeks giving four independent biological replicates from separate parasite batches for each compound. Dose-response curves were calculated with the four factor log-logistic model using the R package drc. The primary screen was carried out at 100μM final concentration. Assay plates were assigned unique IDs and statistical analysis was performed without knowledge of compound identities using R scripts. Once hit wells were identified, well/plate positions were mapped to compound identities using DataWarrior [28]. […] Compounds identified as having encouraging activity from the DMSO solution samples were then resynthesized for confirmatory testing.

[1] = combined primary and secondary screen minus log fold change in movement, adult T. muris, 100 μM
[2] = adult T. muris motility screen at 100 μM, combines primary and secondary screen minus log fold change in movement (mean where both are given)

| Structure (SMILES) | COMBINED_SCREEN_ACTIVITY [1] | PRIMARY_SCREEN_MINUS_LOG_FOLD_CHANGE_MOVEMENT (100 μM) | SECONDARY_SCREEN_MINUS_LOG_FOLD_CHANGE_MOVEMENT (100 μM) | COMBINED_SCREEN_ACTIVITY [2] |
| --- | --- | --- | --- | --- |
| COCCN1C(=O)COCc2ccc(-c3cccc(C(C)C)c3)cc21 [Compound 66] | 7.026 | 7.026 |  |  |
| Cn1cc(-c2ccc3c(c2)N(Cc2ccccc2Cl)C(=O)COC3)cn1 [Compound 114] | 1.278 | 1.278 |  |  |
| CC(=O)Nc1cccc(-c2ccc3c(c2)N(CC2CCCCC2)C(=O)COC3)c1 [Compound 149] | 6.083 | 10.5493 | 1.617 |  |
| N#Cc1cccc(-c2ccc3c(c2)COCC(=O)N3Cc2ccccc2)c1 [Compound 90] | -1.512 | -1.512 |  |  |
| COCCN1C(=O)COCc2ccc(-c3ccc(Cl)cc3)cc21 [Compound 53] | -0.5764 | -0.5764 |  |  |
| Cn1cc(-c2ccc3c(c2)COCC(=O)N3Cc2ccccc2)cn1 [Compound 58] | 0.8104 | 0.8104 |  |  |
| Cc1ccccc1CN1C(=O)COCc2ccc(-c3cccnc3)cc21 [Compound 76] | -0.5388 | -0.5388 |  |  |
| CC(C)c1cccc(-c2ccc3c(c2)COCC(=O)N3Cc2ccc(C(=O)N(C)C)cc2)c1 [Compound 190] |  | 10.3993 | 11.6188 | 11.0091 |
| Cc1ccc(CN2C(=O)COCc3cc(-c4cccc(O)c4)ccc32)cc1 [Compound 98] | -1.09 | -1.09 |  |  |
| O=C1COCc2cc(-c3cccc(CO)c3)ccc2N1Cc1cc(F)cc(F)c1 [Compound 154] | -1.197 | -1.197 |  |  |
| O=C1COCc2cc(-c3cccc(O)c3)ccc2N1Cc1ccccc1 [Compound 78] | -0.318 | -0.318 |  |  |
| O=C1COCc2ccc(-c3cccnc3)cc2N1CCc1ccccc1 [Compound 74] | -0.776 | -0.776 |  |  |
| O=C(O)c1cccc(-c2ccc3c(c2)N(Cc2ccccc2)C(=O)COC3)c1 [Compound 117] | -1.457 | -1.457 |  |  |
| O=C1COCc2cc(-c3cccnc3)ccc2N1Cc1ccccc1Cl [Compound 106] | 6.595 | 6.595 |  |  |
| COCCN1C(=O)COCc2ccc(-c3cc(F)cc(Cl)c3)cc21 [Compound 84] | 0.4605 | 0.4605 |  |  |
| COCCN1C(=O)COCc2ccc(-c3cccc(COC)c3)cc21 [Compound 71] | -1.553 | -1.553 |  |  |
| CCCN1C(=O)COCc2ccc(Br)cc21 [Compound 18] | -1.618 | -1.618 |  |  |
| Cn1cc(-c2ccc3c(c2)COCC(=O)N3Cc2ccc3c(c2)OCO3)cn1 [Compound 127] | 0.2993 | -0.5635 | 1.162 |  |
| Cn1cc(-c2ccc3c(c2)COCC(=O)N3CC2CCCCC2)cn1 [Compound 67] | 7.315 | 2.012 | 12.6188 |  |
| O=C1COCc2ccc(Br)cc2N1CCN1CCOCC1 [Compound 92] | -1.293 | -1.293 |  |  |
| O=C1COCc2cc(-c3ccncc3)ccc2N1Cc1ccccc1 [Compound 52] | 0.9757 | 0.9757 |  |  |
| O=C1COCc2ccc(-c3cccc(F)c3)cc2N1CC1CC1 [Compound 35] | 10.5493 | 10.5493 |  |  |
| O=C(O)c1cccc(-c2ccc3c(c2)N(CC2CC2)C(=O)COC3)c1 [Compound 62] | -1.551 | -1.551 |  |  |
| COc1cccc(CN2C(=O)COCc3ccc(-c4cccc(F)c4)cc32)c1 [Compound 131] | -0.1165 | -0.1165 |  |  |
| CC(C)c1cccc(-c2ccc3c(c2)N(CCN2CCOCC2)C(=O)COC3)c1 [Compound 152] | 5.995 | 5.995 |  |  |

| Structure (SMILES) | COMBINED_SCREEN_ACTIVITY [1] | PRIMARY_SCREEN_MINUS_LOG_FOLD_CHANGE_MOVEMENT (100 μM) | SECONDARY_SCREEN_MINUS_LOG_FOLD_CHANGE_MOVEMENT (100 μM) | COMBINED_SCREEN_ACTIVITY [2] |
| --- | --- | --- | --- | --- |
| O=C1COCc2ccc(-c3cc(F)cc(F)c3)cc2N1CC1CC1 [Compound 48] | 1.875 | 1.875 |  |  |
| O=C1COCc2ccc(-c3ccc(Cl)cc3)cc2N1CC1CC1 [Compound 47] | 1.5592 | 1.5592 |  |  |
| CC(C)N1C(=O)COCc2ccc(-c3ccccc3)cc21 [Compound 12] | 1.691 | 1.691 |  |  |
| CN1C(=O)COCc2c(-c3ccc(Cl)cc3)cccc21 [Compound 22] | -0.8438 | -0.8438 |  |  |
| COCc1cccc(-c2ccc3c(c2)COCC(=O)N3Cc2cc(F)cc(F)c2)c1 [Compound 179] | 0.9799 | 0.9799 |  |  |
| COCCN1C(=O)COCc2ccc(-c3cccc(NC(C)=O)c3)cc21 [Compound 88] | -0.1104 | -1.635 | 1.414 |  |
| Cc1ccc(CN2C(=O)COCc3cc(-c4cnn(C)c4)ccc32)cc1 [Compound 82] | 0.6432 | 0.6432 |  |  |
| COCCN1C(=O)COCc2ccc(-c3cccc(C(=O)OC)c3)cc21 [Compound 93] | -1.513 | -1.513 |  |  |
| COc1ccc(F)cc1-c1ccc2c(c1)N(CCc1ccccc1)C(=O)COC2 [Compound 147] | 0.4002 | 0.4002 |  |  |
| COCCN1C(=O)COCc2ccc(-c3cccc(O)c3)cc21 [Compound 37] | -1.788 | -1.788 |  |  |
| Cn1cc(-c2ccc3c(c2)N(Cc2ccccc2)C(=O)COC3)cn1 [Compound 59] | -0.5338 | -0.5338 |  |  |
| COCc1cccc(-c2ccc3c(c2)N(CC2CC2)C(=O)COC3)c1 [Compound 63] | -1.629 | -1.629 |  |  |
| O=C1COCc2ccc(Br)cc2N1CC1CCCCC1 [Compound 65] | -1.362 | -1.362 |  |  |
| O=C1COCc2cc(-c3cccc(CO)c3)ccc2N1Cc1ccc2c(c1)OCO2 [Compound 168] | 1.914 | 1.914 |  |  |
| COc1cc(F)ccc1-c1ccc2c(c1)COCC(=O)N2Cc1ccccc1 [Compound 128] | 3.2501 | 3.2501 |  |  |
| COc1ccc(-c2ccc3c(c2)N(Cc2ccccc2)C(=O)COC3)cn1 [Compound 102] | 0.7062 | 0.7062 |  |  |
| COCCN1C(=O)COCc2ccc(-c3cc(F)cc(F)c3)cc21 [Compound 56] | -1.686 | -1.686 |  |  |
| COc1ccc(F)cc1-c1ccc2c(c1)N(CC1CC1)C(=O)COC2 [Compound 69] | 11.5841 | 10.5493 | 12.6188 |  |
| O=C1COCc2ccc(-c3ccccc3)cc2N1CC1CC1 [Compound 24] | 7.227 | 7.227 |  |  |
| CCN(CC)C(=O)c1cccc(-c2ccc3c(c2)N(Cc2ccccc2)C(=O)COC3)c1 [Compound 187] |  | 7.09 | 12.6188 | 9.854 |
| O=C1COCc2cc(-c3cc(F)cc(Cl)c3)ccc2N1CCN1CCOCC1 [Compound 174] | -1.356 | -1.356 |  |  |
| COCc1cccc(-c2ccc3c(c2)N(Cc2ccccc2)C(=O)COC3)c1 [Compound 118] | 10.5493 | 10.5493 |  |  |
| COc1cccc(CN2C(=O)COCc3cc(-c4ccc(F)cc4OC)ccc32)c1 [Compound 177] | -1.282 | -1.282 |  |  |
| O=C1COCc2c(Br)cccc2N1Cc1ccccc1 [Compound 55] | 1.386 | 1.386 |  |  |
| O=C1COCc2ccc(-c3ccncc3)cc2N1CC1CCCCC1 [Compound 60] | 7.742 | 7.742 |  |  |
